Measured values from publication PMC9576799, “Discovery of small molecule inhibitors that effectively disrupt IQGAP1-Cdc42 interaction in breast cancer cells” (Scientific Reports, 2022).

Assays:
[1] = test system: filopodia in MDA-MB-231 cells; experiment: Filopodia quantification by confocal microscopy (FiloQuant); assay type: cell-based, human; settings: 50 μM 2 h, EGF-stimulated
Protocol: MDA-MB231 cells were cultured in 24-well plates containing glass coverslips. When 60% confluent, cells were serum starved for 16 h, preincubated with 50 μM compound NCGC00131308 for 2 h, then incubated with 100 ng/mL epidermal growth factor (EGF) or vehicle for 10 min. Cells were fixed with 4% PFA and stained with Alexa Fluor 488 Phalloidin (Invitrogen™#A12379) and Hoechst 33342 (BD Biosciences #561908) to visualize F-actin and DNA, respectively. Coverslips were mounted with ProLong glass antifade mounting medium (Invitrogen), then imaged with a Zeiss LSM880 confocal microscope using a 63× objective lens. Cells and filopodia were segmented using FIJI/ImageJ[49]. Individual filopodia were segmented using the FiloQuant FIJI plugin[50]. Cells were segmented by Voronoi tessellation using Hoechst 33342 stained nuclei as seed points. The segmented images were quantified using the scikit-image Python package. The following geometric and spatial parameters of the filopodia were quantified: (1) the branch length of each filopodial segment, (2) cumulative area of each segment, (3) eccentricity, defined as the […], and (4) the number of filopodial segments per unit exposed cell membrane. Further data handling and plotting were done using the tidyverse R package. At least 200 cells were analyzed for each condition.

[2] = target: T1, GST-IQGAP1-C / His-Cdc42-Q61L (Homo sapiens, UniProt P46940); experiment: HTRF IQGAP1-Cdc42 binding assay (validation / confirmatory); settings: 50 nM His-Cdc42-Q61L, 1.5 nM GST-IQGAP1-C
T1 construct: the C-terminal half of IQGAP1 (comprising amino acids 864–1657) containing a GST-tag; made in house; host or cells: Escherichia coli (BL-21 for GST-IQGAP1-C)
T1 sequence (P46940 864-1657): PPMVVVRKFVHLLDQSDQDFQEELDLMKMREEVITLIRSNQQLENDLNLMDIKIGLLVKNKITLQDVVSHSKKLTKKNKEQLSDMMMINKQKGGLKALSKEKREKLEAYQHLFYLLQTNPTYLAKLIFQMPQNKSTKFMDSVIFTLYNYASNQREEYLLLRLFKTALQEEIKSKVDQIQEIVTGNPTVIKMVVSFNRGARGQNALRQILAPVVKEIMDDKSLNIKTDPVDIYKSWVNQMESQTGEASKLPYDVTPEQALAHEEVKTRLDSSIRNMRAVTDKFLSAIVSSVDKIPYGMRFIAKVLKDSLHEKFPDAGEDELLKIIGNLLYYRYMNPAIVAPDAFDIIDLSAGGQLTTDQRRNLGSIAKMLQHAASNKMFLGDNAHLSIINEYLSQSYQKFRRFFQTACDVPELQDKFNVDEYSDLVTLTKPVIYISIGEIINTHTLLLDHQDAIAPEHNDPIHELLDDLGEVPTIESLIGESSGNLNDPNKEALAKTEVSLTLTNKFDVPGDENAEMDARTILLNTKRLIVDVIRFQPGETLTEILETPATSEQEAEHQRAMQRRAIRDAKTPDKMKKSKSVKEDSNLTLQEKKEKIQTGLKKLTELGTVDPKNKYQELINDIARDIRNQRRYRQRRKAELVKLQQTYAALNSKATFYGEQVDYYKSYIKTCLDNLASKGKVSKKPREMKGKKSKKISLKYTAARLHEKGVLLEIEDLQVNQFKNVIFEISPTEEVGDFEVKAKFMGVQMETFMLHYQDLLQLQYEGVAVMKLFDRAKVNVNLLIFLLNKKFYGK
Protocol: Recombinant His-Cdc42-Q61L, GST-IQGAP1-C in combination with acceptor XL665 conjugated anti-His antibody (Anti-His-XL665) and donor Eu-cryptate conjugated anti-GST antibody (anti-GST-cryptate) were used for the HTRF assay to perform a high throughput screening of compound libraries in 1536-well white solid bottom medium-binding plates (Greiner Bio-One).
For the assay, His-Cdc42-Q61L and GST-IQGAP1-C proteins were diluted and pre-mixed in the binding buffer (50 mM Tris, pH 7.5, 150 mM NaCl and 0.01% Triton-X100) to final assay concentrations of 50 nM His-Cdc42-Q61L and 1.5 nM GST-IQGAP1-C. As control, 1.5 nM GST-IQGAP1-C in the absence of His-Cdc42-Q61L was used to gauge the maximal potential inhibition (IC100). Anti-His-XL665 and anti-GST-cryptate antibodies were prepared as threefold concentrated working mixture in binding buffer just prior to dispensing, with final assay concentrations of 5 ng/μL and 0.7 ng/µL, respectively. Pre-mixed proteins (4 µL/well) were dispensed to assay plates with a BioRAPTR FRD™ dispenser. […] The signal was detected immediately with an Envision plate reader (Perkin Elmer) using the HTRF settings (excitation at 340 nm, dual emission at 665 nm and 620 nm). […] The data were calculated as the ratio 665/620 × 10^4 to normalize for any effects in the donor channel. […]

Structure (SMILES)	filopodia area [1]	filopodia length [1]	filopodia shape (eccentricity) [1]	number of filopodia per cell [1]	EC50 [2] [µM]	Emax ([2]; 3 h, read-out: efficacy, HTRF validation assay) [%]
CCN1CCN(c2ncc3c(n2)CCN(Cc2cc(Br)cs2)C3)CC1 [NCGC00131308]	significantly decreased	significantly decreased	reduced eccentricity	significantly decreased		
Cc1cccc(NC(=O)c2c(NC(=O)C(F)(F)F)sc3c2CCCCC3)c1 [NCGC00098561]					7.94	84
